From patent US6737383B1, “Herbicidal oxadiazolidines” (priority 1999, dated 2004)

How the values were obtained:
Conditions in all cases: Preemergence
sugar beet = test: Test B pre/postemergence sugar beet; format: in vivo, Beta vulgaris
Method in brief: (§1)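 Herbicidal effect was estimated by eye on a ten-point control scale after plants spent twelve to sixteen days in a greenhouse following soil or foliar treatment. Foliar sprays targeted plants at one to four leaves; all doses were formulated in a non-phytotoxic solvent with surfactant.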

bedstraw = test: Test B pre/postemergence bedstraw; format: in vivo, Galium aparine
Method in brief: as §1

velvetleaf = test: Test B pre/postemergence velvetleaf; format: in vivo, Abutilon theophrasti
Method in brief: as §1

corn = test: Test B pre/postemergence corn; format: in vivo, Zea mays
Method in brief: as §1

surinam grass = test: Test B pre/postemergence surinam grass; format: in vivo, Brachiaria decumbens
Method in brief: as §1

rape = test: Test B pre/postemergence rape; format: in vivo, Brassica napus
Method in brief: as §1

crabgrass = test: Test B pre/postemergence crabgrass; format: in vivo, Digitaria sanguinalis
Method in brief: as §1

cocklebur = test: Test B pre/postemergence cocklebur; format: in vivo, Xanthium strumarium
Method in brief: as §1

wheat = test: Test B pre/postemergence wheat; format: in vivo, Triticum aestivum
Method in brief: as §1

blackgrass = test: Test B pre/postemergence blackgrass; format: in vivo, Alopecurus myosuroides
Method in brief: as §1

wild oat = test: Test B pre/postemergence wild oat; format: in vivo, Avena fatua
Method in brief: as §1

soybean = test: Test B pre/postemergence soybean; format: in vivo, Glycine max
Method in brief: as §1

morningglory = test: Test B pre/postemergence morningglory; format: in vivo, Ipomoea hederacea
Method in brief: as §1

pigweed = test: Test B pre/postemergence pigweed; format: in vivo, Amaranthus retroflexus
Method in brief: as §1

purple nutsedge = test: Test B pre/postemergence purple nutsedge; format: in vivo, Cyperus rotundus
Method in brief: as §1

giant foxtail = test: Test B pre/postemergence giant foxtail; format: in vivo, Setaria faberii
Method in brief: as §1

[1] = Rate 62 g/ha, scale of 0 to 10 where 0 is no effect and 10 is complete control
[2] = Rate 125 g/ha, scale of 0 to 10 where 0 is no effect and 10 is complete control
[3] = Rate 250 g/ha, scale 0 (no effect) to 10 (complete control)
[4] = Rate 500 g/ha, scale 0 to 10 (0 no effect, 10 complete control)

## CC(C)N(C(=O)n1oc(=O)n(C(C)C2CCC2)c1=O)c1ccc(F)cc1 (centres unmarked) [Compound 718]
Sugar beet; [1]
  Sugarbeets plant response rating: 0
Sugar beet; [2]
  Plant response rating, Sugarbeets: 0
Sugar beet; [3]
  Sugarbeets plant response rating: 2
Sugar beet; [4]
  Sugarbeets plant response rating: 2
bedstraw; [1]
  Bedstraw plant response rating: 0
bedstraw; [2]
  Plant response rating, Bedstraw: 0
bedstraw; [3]
  Bedstraw plant response rating: 0
bedstraw; [4]
  Bedstraw plant response rating: 0
velvetleaf; [1]
  Velvetleaf plant response rating: 0
velvetleaf; [2]
  Plant response rating, Velvetleaf: 0
velvetleaf; [3]
  Velvetleaf plant response rating: 0
velvetleaf; [4]
  Velvetleaf plant response rating: 0
corn; [1]
  Corn plant response rating: 0
corn; [2]
  Plant response rating, Corn: 0
corn; [3]
  Corn plant response rating: 0
corn; [4]
  Corn plant response rating: 3
Surinam grass; [1]
  B. signalgrass plant response rating: 0
Surinam grass; [2]
  Plant response rating, B. signalgrass: 2
Surinam grass; [3]
  B. signalgrass plant response rating: 7
Surinam grass; [4]
  B. signalgrass plant response rating: 9
rape; [1]
  Rape plant response rating: 0
rape; [2]
  Plant response rating, Rape: 0
rape; [3]
  Rape plant response rating: 2
rape; [4]
  Rape plant response rating: 3
crabgrass; [1]
  Crabgrass plant response rating: 9
crabgrass; [2]
  Plant response rating, Crabgrass: 10
crabgrass; [3]
  Crabgrass plant response rating: 10
crabgrass; [4]
  Crabgrass plant response rating: 10
cocklebur; [1]
  Cocklebur plant response rating: 0
cocklebur; [2]
  Plant response rating, Cocklebur: 0
cocklebur; [3]
  Cocklebur plant response rating: 0
cocklebur; [4]
  Cocklebur plant response rating: 0
wheat; [1]
  Wheat plant response rating: 0
wheat; [2]
  Plant response rating, Wheat: 0
wheat; [3]
  Wheat plant response rating: 0
wheat; [4]
  Wheat plant response rating: 2
blackgrass; [1]
  Blackgrass plant response rating: 8
blackgrass; [2]
  Plant response rating, Blackgrass: 9
blackgrass; [3]
  Blackgrass plant response rating: 9
blackgrass; [4]
  Blackgrass plant response rating: 10
Wild oat; [1]
  Wild oats plant response rating: 2
Wild oat; [2]
  Plant response rating, Wild oats: 2
Wild oat; [4]
  Wild oats plant response rating: 8
soybean; [1]
  Soybean plant response rating: 0
soybean; [2]
  Plant response rating, Soybean: 0
soybean; [3]
  Soybean plant response rating: 0
soybean; [4]
  Soybean plant response rating: 0
morningglory; [1]
  Morningglory plant response rating: 0
morningglory; [2]
  Plant response rating, Morningglory: 0
morningglory; [3]
  Morningglory plant response rating: 0
morningglory; [4]
  Morningglory plant response rating: 0
pigweed; [1]
  Redroot pigweed plant response rating: 0
pigweed; [2]
  Plant response rating, Redroot pigweed: 4
pigweed; [3]
  Redroot pigweed plant response rating: 6
pigweed; [4]
  Redroot pigweed plant response rating: 8
Purple nutsedge; [1]
  Nutsedge plant response rating: 0
Purple nutsedge; [3]
  Nutsedge plant response rating: 0
Purple nutsedge; [4]
  Nutsedge plant response rating: 0
Giant foxtail; [1]
  Giant foxtail plant response rating: 10
Giant foxtail; [2]
  Plant response rating, Giant foxtail: 10
Giant foxtail; [3]
  Giant foxtail plant response rating: 10
Giant foxtail; [4]
  Giant foxtail plant response rating: 10
